What was measured:
[1] = Brain PET imaging in anesthetized baboons; conditions: for Estimated concentration in whole brain, C30min / Concentration in whole brain, C30min: 30 min; for Estimated concentration in whole brain, C30min / Estimated concentration in whole brain, C60min / Estimated concentration in whole brain, C90min: signal assumed intact drug; for Estimated concentration in whole brain, C60min / Concentration in whole brain, C60min: 60 min; for Estimated concentration in whole brain, C90min / Concentration in whole brain, C90min: 90 min; for Concentration in whole brain, C30min / Concentration in whole brain, C60min / Concentration in whole brain, C90min: baboon, i.v.
[2] = Torso PET imaging in anesthetized baboons; conditions: for Calculated drug concentration in gallbladder / Calculated drug concentration in heart / Calculated drug concentration in kidney cortex / Calculated drug concentration in kidney medulla / Calculated drug concentration in liver / Calculated drug concentration in lung / Calculated drug concentration in plasma: 17 kg baboon; for Concentration in gallbladder / Concentration in heart / Concentration in kidney cortex / Concentration in kidney medulla / Concentration in liver / Concentration in lung / Concentration in plasma: baboon, i.v.
[3] = estimated for 17 kg baboon, 10 mg/kg dose
[4] = 15 min, calculated assuming 10 mg/kg dose
[5] = 30 min, calculated assuming 10 mg/kg dose
[6] = 60 min, calculated assuming 10 mg/kg dose
[7] = 90 min, calculated assuming 10 mg/kg dose
[8] = estimated from baboon weight, 20 mg/kg dose
[9] = 15 min, calculated assuming 20 mg/kg dose
[10] = 30 min, calculated assuming 20 mg/kg dose
[11] = 60 min, calculated assuming 20 mg/kg dose
[12] = 90 min, calculated assuming 20 mg/kg dose

CO[C@H]1/C=C/O[C@@]2(C)Oc3c(C)c(O)c4cc(c(/C=N/N5CCN([11CH3])CC5)c(O)c4c3C2=O)NC(=O)/C(C)=C\C=C\C(C)[C@H](O)[C@@H](C)[C@@H](O)[C@@H](C)[C@H](OC(C)=O)[C@@H]1C (stereo partly drawn) [[^11C]RIF]
Estimated concentration in whole brain, C30min [1, 3]: 1.09 µg/mL
Estimated concentration in whole brain, C60min [1, 3]: 0.912 µg/mL
Estimated concentration in whole brain, C90min [1, 3]: 1.21 µg/mL
Concentration in whole brain, C30min [1]: 0.000642 %ID/cc
Concentration in whole brain, C60min [1]: 0.000536 %ID/cc
Concentration in whole brain, C90min [1]: 0.00071 %ID/cc
Calculated drug concentration in gallbladder [2, 4]: (121.40) µg/ml
Calculated drug concentration in heart [2, 4]: (7.28) µg/ml
Calculated drug concentration in kidney cortex [2, 4]: (15.79) µg/ml
Calculated drug concentration in kidney medulla [2, 4]: (36.39) µg/ml
Calculated drug concentration in liver [2, 4]: (258.98) µg/ml
Calculated drug concentration in lung [2, 4]: (5.03) µg/ml
Calculated drug concentration in plasma [2, 4]: (2.81) µg/ml
Calculated drug concentration in gallbladder [2, 5]: (586.34) µg/ml
Calculated drug concentration in heart [2, 5]: (5.28) µg/ml
Calculated drug concentration in kidney cortex [2, 5]: (6.34) µg/ml
Calculated drug concentration in kidney medulla [2, 5]: (11.63) µg/ml
Calculated drug concentration in liver [2, 5]: (276.12) µg/ml
Calculated drug concentration in lung [2, 5]: (2.83) µg/ml
Calculated drug concentration in plasma [2, 5]: (1.50) µg/ml
Calculated drug concentration in gallbladder [2, 6]: (983.24) µg/ml
Calculated drug concentration in heart [2, 6]: (1.93) µg/ml
Calculated drug concentration in kidney cortex [2, 6]: (0.43) µg/ml
Calculated drug concentration in kidney medulla [2, 6]: (6.73) µg/ml
Calculated drug concentration in liver [2, 6]: (288.05) µg/ml
Calculated drug concentration in lung [2, 6]: (2.53) µg/ml
Calculated drug concentration in plasma [2, 6]: (1.14) µg/ml
Calculated drug concentration in gallbladder [2, 7]: (1009.99) µg/ml
Calculated drug concentration in heart [2, 7]: (6.80) µg/ml
Calculated drug concentration in kidney cortex [2, 7]: (8.19) µg/ml
Calculated drug concentration in kidney medulla [2, 7]: (9.44) µg/ml
Calculated drug concentration in liver [2, 7]: (299.73) µg/ml
Calculated drug concentration in plasma [2, 7]: (1.16) µg/ml
Concentration in gallbladder ([2]; 15 min after administration): 0.0714 %ID/cc
Concentration in heart ([2]; 15 min after administration): 0.0043 %ID/cc
Concentration in kidney cortex ([2]; 15 min after administration): 0.0093 %ID/cc
Concentration in kidney medulla ([2]; 15 min after administration): 0.0214 %ID/cc
Concentration in liver ([2]; 15 min after administration): 0.1523 %ID/cc
Concentration in lung ([2]; 15 min after administration): 0.003 %ID/cc
Concentration in plasma ([2]; 15 min after administration): 0.00165 %ID/cc
Concentration in gallbladder ([2]; 30 min after administration): 0.3449 %ID/cc
Concentration in heart ([2]; 30 min after administration): 0.0031 %ID/cc
Concentration in kidney cortex ([2]; 30 min after administration): 0.0037 %ID/cc
Concentration in kidney medulla ([2]; 30 min after administration): 0.0068 %ID/cc
Concentration in liver ([2]; 30 min after administration): 0.1624 %ID/cc
Concentration in lung ([2]; 30 min after administration): 0.0017 %ID/cc
Concentration in plasma ([2]; 30 min after administration): 0.00088 %ID/cc
Concentration in gallbladder ([2]; 60 min after administration): 0.5784 %ID/cc
Concentration in heart ([2]; 60 min after administration): 0.0011 %ID/cc
Concentration in kidney cortex ([2]; 60 min after administration): 0.0003 %ID/cc
Concentration in kidney medulla ([2]; 60 min after administration): 0.004 %ID/cc
Concentration in liver ([2]; 60 min after administration): 0.1694 %ID/cc
Concentration in lung ([2]; 60 min after administration): 0.0015 %ID/cc
Concentration in plasma ([2]; 60 min after administration): 0.00067 %ID/cc
Concentration in gallbladder ([2]; 90 min after administration): 0.5941 %ID/cc
Concentration in heart ([2]; 90 min after administration): 0.004 %ID/cc
Concentration in kidney cortex ([2]; 90 min after administration): 0.0048 %ID/cc
Concentration in kidney medulla ([2]; 90 min after administration): 0.0056 %ID/cc
Concentration in liver ([2]; 90 min after administration): 0.1763 %ID/cc
Concentration in plasma ([2]; 90 min after administration): 0.00068 %ID/cc

N[11C](=O)c1cnccn1 [[^11C]PZA]
Estimated concentration in whole brain, C30min [1, 8]: 21.05 µg/mL
Estimated concentration in whole brain, C60min [1, 8]: 15.74 µg/mL
Estimated concentration in whole brain, C90min [1, 8]: 13.70 µg/mL
Concentration in whole brain, C30min [1]: 0.00619 %ID/cc
Concentration in whole brain, C60min [1]: 0.00463 %ID/cc
Concentration in whole brain, C90min [1]: 0.00403 %ID/cc
Calculated drug concentration in heart [2, 9]: (67.76) µg/ml
Calculated drug concentration in kidney cortex [2, 9]: (20.52) µg/ml
Calculated drug concentration in kidney medulla [2, 9]: (617.02) µg/ml
Calculated drug concentration in liver [2, 9]: (36.14) µg/ml
Calculated drug concentration in lung [2, 9]: (35.03) µg/ml
Calculated drug concentration in plasma [2, 9]: (22.03) µg/ml
Calculated drug concentration in heart [2, 10]: (61.50) µg/ml
Calculated drug concentration in kidney cortex [2, 10]: (16.59) µg/ml
Calculated drug concentration in kidney medulla [2, 10]: (474.39) µg/ml
Calculated drug concentration in liver [2, 10]: (26.96) µg/ml
Calculated drug concentration in lung [2, 10]: (26.48) µg/ml
Calculated drug concentration in plasma [2, 10]: (14.59) µg/ml
Calculated drug concentration in heart [2, 11]: (57.59) µg/ml
Calculated drug concentration in kidney cortex [2, 11]: (12.55) µg/ml
Calculated drug concentration in kidney medulla [2, 11]: (343.00) µg/ml
Calculated drug concentration in liver [2, 11]: (21.98) µg/ml
Calculated drug concentration in lung [2, 11]: (22.17) µg/ml
Calculated drug concentration in plasma [2, 11]: (11.25) µg/ml
Calculated drug concentration in heart [2, 12]: (59.49) µg/ml
Calculated drug concentration in kidney cortex [2, 12]: (9.93) µg/ml
Calculated drug concentration in kidney medulla [2, 12]: (229.44) µg/ml
Calculated drug concentration in liver [2, 12]: (19.19) µg/ml
Calculated drug concentration in lung [2, 12]: (18.58) µg/ml
Calculated drug concentration in plasma [2, 12]: (9.04) µg/ml
Concentration in heart ([2]; 15 min after administration): 0.0199 %ID/cc
Concentration in kidney cortex ([2]; 15 min after administration): 0.0060 %ID/cc
Concentration in kidney medulla ([2]; 15 min after administration): 0.1815 %ID/cc
Concentration in liver ([2]; 15 min after administration): 0.0106 %ID/cc
Concentration in lung ([2]; 15 min after administration): 0.0103 %ID/cc
Concentration in plasma ([2]; 15 min after administration): 0.00648 %ID/cc
Concentration in heart ([2]; 30 min after administration): 0.0181 %ID/cc
Concentration in kidney cortex ([2]; 30 min after administration): 0.0049 %ID/cc
Concentration in kidney medulla ([2]; 30 min after administration): 0.1395 %ID/cc
Concentration in liver ([2]; 30 min after administration): 0.0079 %ID/cc
Concentration in lung ([2]; 30 min after administration): 0.0078 %ID/cc
Concentration in plasma ([2]; 30 min after administration): 0.00429 %ID/cc
Concentration in heart ([2]; 60 min after administration): 0.0169 %ID/cc
Concentration in kidney cortex ([2]; 60 min after administration): 0.0037 %ID/cc
Concentration in kidney medulla ([2]; 60 min after administration): 0.1009 %ID/cc
Concentration in liver ([2]; 60 min after administration): 0.0065 %ID/cc
Concentration in lung ([2]; 60 min after administration): 0.0065 %ID/cc
Concentration in plasma ([2]; 60 min after administration): 0.00331 %ID/cc
Concentration in heart ([2]; 90 min after administration): 0.0175 %ID/cc
Concentration in kidney cortex ([2]; 90 min after administration): 0.0029 %ID/cc
Concentration in kidney medulla ([2]; 90 min after administration): 0.0675 %ID/cc
Concentration in liver ([2]; 90 min after administration): 0.0056 %ID/cc
Concentration in lung ([2]; 90 min after administration): 0.0055 %ID/cc
Concentration in plasma ([2]; 90 min after administration): 0.00266 %ID/cc
